The first experiment deals with southern armyworm (Spodopetra eridania Cramer). In words: Mite/insect screen, sprayed squash leaves (SAW). The note with it: Spodoptera eridania, percent mortality; spray rate 200 ppm; read-out: SAW RESULTS %. In kind it is in vivo. The protocol:
(§1) The compounds of Examples 1-203 were tested for miticidal and insecticidal activity in the following mite/insect screen.
(§2) Each test compound was formulated by dissolving the compound in acetone/alcohol (50:50) mixture containing 23 g of "TOXIMUL R" (sulfonate/nonionic emulsifier blend) and 13 g of "TOXIMUL S" (sulfonate/nonionic emulsifier blend) per liter. These mixtures were then diluted with water to give the indicated concentrations.
(§3) Other plants in the same treatment pot were left uninfested. The leaves were then sprayed with 5 ml of test solution using a DeVilbiss atomizing sprayer at 10 psi. Both surfaces of the leaves were covered until runoff, and then allowed to dry for one hour. Two uninfested leaves were then excised and placed into a Petri dish containing larval southern armyworm (Spodopetra eridania Cramer).
(§4) After standard exposure periods, percent mortality and phytotoxicity were evaluated. […]
Turning to `FC(F)(F)c1ccc(CCOc2ncnc3ccccc23)cc1` [Example 134, 4-[2-[4-(trifluoromethyl)phenyl]ethoxy]quinazoline], the mortality at 200 ppm turned out to be 60%.

The experiment is the same for the next values; noted with them: Spodoptera eridania, percent mortality; spray rate 400 ppm; read-out: SAW RESULTS %.
As for `Fc1cccc2c(OCCc3ccc(Oc4ccccc4)cc3)ncnc12` [Example 10, 8-fluoro-4-[2-(4-phenoxyphenyl)ethoxy]quinazoline], the mortality at 400 ppm is 100%.

For `Clc1ccccc1CCOc1ncnc2ccccc12` [Example 11, 4-[2-(2-chlorophenyl)ethoxy]quinazoline], the mortality at 400 ppm amounted to 0%.

For `COc1cccc(CCOc2ncnc3ccccc23)c1` [Example 13, 4-[2-(3-methoxyphenyl)ethoxy]quinazoline], the mortality at 400 ppm came to 0%.

With `COc1ccccc1CCOc1ncnc2ccccc12` [Example 14, 4-[2-(2-methoxyphenyl)ethoxy]quinazoline], the mortality at 400 ppm was found to be 0%.

As for `c1ccc2c(c1)Cc1cc(CCOc3ncnc4ccccc34)ccc1-2` [Example 20, 4-[2-(9H-fluoren-2-yl)ethoxy]quinazoline], the mortality at 400 ppm came out at 60%.

As to `FC(F)(F)c1ccc(CCOc2ncnc3ccccc23)cc1` [Example 134, 4-[2-[4-(trifluoromethyl)phenyl]ethoxy]quinazoline], the mortality at 400 ppm stood at 100%.

Another experiment has as its system melon aphids (Aphis gossypii Glover). In words: Mite/insect screen, sprayed squash cotyledons (MA). In kind it is in vivo. The following applies: Aphis gossypii, percent mortality; spray rate 200 ppm; read-out: MA RESULTS %. The protocol:
as §1, §2, §3, §4
As to `FC(F)(F)c1ccc(CCOc2ncnc3ccccc23)cc1` [Example 134, 4-[2-[4-(trifluoromethyl)phenyl]ethoxy]quinazoline], the mortality at 200 ppm amounted to 100%.

The same experiment, now with this note: Aphis gossypii, percent mortality; spray rate 400 ppm; read-out: MA RESULTS %.
For the compound `Fc1cccc2c(OCCc3ccc(Oc4ccccc4)cc3)ncnc12` [Example 10, 8-fluoro-4-[2-(4-phenoxyphenyl)ethoxy]quinazoline], the mortality at 400 ppm came to 0%.

Take `Clc1ccccc1CCOc1ncnc2ccccc12` [Example 11, 4-[2-(2-chlorophenyl)ethoxy]quinazoline]: the mortality at 400 ppm came to 0%.

With `COc1cccc(CCOc2ncnc3ccccc23)c1` [Example 13, 4-[2-(3-methoxyphenyl)ethoxy]quinazoline], the mortality at 400 ppm is 90%.

On to `COc1ccccc1CCOc1ncnc2ccccc12` [Example 14, 4-[2-(2-methoxyphenyl)ethoxy]quinazoline], for which the mortality at 400 ppm worked out at 0%.

Consider `c1ccc2c(c1)Cc1cc(CCOc3ncnc4ccccc34)ccc1-2` [Example 20, 4-[2-(9H-fluoren-2-yl)ethoxy]quinazoline], for which the mortality at 400 ppm is 100%.

Regarding `FC(F)(F)c1ccc(CCOc2ncnc3ccccc23)cc1` [Example 134, 4-[2-[4-(trifluoromethyl)phenyl]ethoxy]quinazoline], the mortality at 400 ppm turned out to be 100%.

Another experiment deals with Southern corn rootworm (Diabrotica undecimpuctata howardi Barber). In words: Mite/insect screen, soil treatment (CRW). It counts as in vivo. The following applies: Diabrotica; percent mortality; soil treatment, CRW rate 12.00 ppm; read-out: CRW RESULTS %. How it is done:
as §1, §2
Activity on Southern corn rootworm (Diabrotica undecimpuctata howardi Barber) was evaluated by adding two ml of tap water, a presoaked corn seed, and 15 g of dry sandy soil to a one ounce plastic container. The soil was treated with 1 mL of test solution containing a pre-determined concentration of test compound. After six to 12 hours of drying, five 2-3 instar corn rootworm larvae were added to the individual cups, which were then capped and held at 23°C.
as §4
`FC(F)(F)c1ccc(CCOc2ncnc3ccccc23)cc1` [Example 134, 4-[2-[4-(trifluoromethyl)phenyl]ethoxy]quinazoline]: the mortality at 12 ppm was determined as 0%.

The same experiment, now with this note: Diabrotica; percent mortality; soil treatment, CRW rate 24.00 ppm; read-out: CRW RESULTS %.
Consider `Fc1cccc2c(OCCc3ccc(Oc4ccccc4)cc3)ncnc12` [Example 10, 8-fluoro-4-[2-(4-phenoxyphenyl)ethoxy]quinazoline], for which the mortality at 24 ppm worked out at 0%.

For `Clc1ccccc1CCOc1ncnc2ccccc12` [Example 11, 4-[2-(2-chlorophenyl)ethoxy]quinazoline], the mortality at 24 ppm turned out to be 0%.

Take `COc1cccc(CCOc2ncnc3ccccc23)c1` [Example 13, 4-[2-(3-methoxyphenyl)ethoxy]quinazoline]: the mortality at 24 ppm came out at 0%.

`COc1ccccc1CCOc1ncnc2ccccc12` [Example 14, 4-[2-(2-methoxyphenyl)ethoxy]quinazoline]: the mortality at 24 ppm came out at 0%.

For `c1ccc2c(c1)Cc1cc(CCOc3ncnc4ccccc34)ccc1-2` [Example 20, 4-[2-(9H-fluoren-2-yl)ethoxy]quinazoline], the mortality at 24 ppm came to 100%.

For `FC(F)(F)c1ccc(CCOc2ncnc3ccccc23)cc1` [Example 134, 4-[2-[4-(trifluoromethyl)phenyl]ethoxy]quinazoline], the mortality at 24 ppm came to 0%.

In a further experiment the test system is Pyricularia oryzae (rice blast).
Test: not given
The note with it: disease control rating, foliar spray, host rice; 400 ppm (+++ at 100 ppm). It counts as in vivo.
For `Fc1cccc2c(OCCc3ccc(Oc4ccccc4)cc3)ncnc12` [Example 10, 8-fluoro-4-[2-(4-phenoxyphenyl)ethoxy]quinazoline], the “RICE BLAST” value is recorded as “+++ (+++ = 90-100% control at 100 ppm)”.

As for `Clc1ccccc1CCOc1ncnc2ccccc12` [Example 11, 4-[2-(2-chlorophenyl)ethoxy]quinazoline], the “RICE BLAST” value is listed as “- (- = 0-19% control at 400 ppm)”.

On to `COc1cccc(CCOc2ncnc3ccccc23)c1` [Example 13, 4-[2-(3-methoxyphenyl)ethoxy]quinazoline], for which the “RICE BLAST” value is recorded as “+++ (+++ = 90-100% control at 100 ppm)”.

As to `COc1ccccc1CCOc1ncnc2ccccc12` [Example 14, 4-[2-(2-methoxyphenyl)ethoxy]quinazoline], the “RICE BLAST” value is on record as “+ (+ = 20-89% control at 400 ppm)”.

With `c1ccc2c(c1)Cc1cc(CCOc3ncnc4ccccc34)ccc1-2` [Example 20, 4-[2-(9H-fluoren-2-yl)ethoxy]quinazoline], the “RICE BLAST” value is reported as “++ (++ = 90-100% control at 400 ppm)”.

As for `FC(F)(F)c1ccc(CCOc2ncnc3ccccc23)cc1` [Example 134, 4-[2-[4-(trifluoromethyl)phenyl]ethoxy]quinazoline], the “RICE BLAST” value was “+++ (+++ = 90-100% control at 100 ppm)”.

Another experiment relates to Twospotted spider mites (Tetranychus urticae Koch). In words: Mite/insect screen, sprayed squash cotyledons (SM). The note with it: Tetranychus urticae, percent mortality; spray rate 200 ppm; read-out: SM RESULTS %. It counts as in vivo. How it is done:
as §1, §2, §3, §4
In the case of `FC(F)(F)c1ccc(CCOc2ncnc3ccccc23)cc1` [Example 134, 4-[2-[4-(trifluoromethyl)phenyl]ethoxy]quinazoline], the mortality at 200 ppm was 90%.

The same experiment, now with this note: Tetranychus urticae, percent mortality; spray rate 400 ppm; read-out: SM RESULTS %.
Turning to `Fc1cccc2c(OCCc3ccc(Oc4ccccc4)cc3)ncnc12` [Example 10, 8-fluoro-4-[2-(4-phenoxyphenyl)ethoxy]quinazoline], the mortality at 400 ppm came to 0%.

With `Clc1ccccc1CCOc1ncnc2ccccc12` [Example 11, 4-[2-(2-chlorophenyl)ethoxy]quinazoline], the mortality at 400 ppm amounted to 0%.

With `COc1cccc(CCOc2ncnc3ccccc23)c1` [Example 13, 4-[2-(3-methoxyphenyl)ethoxy]quinazoline], the mortality at 400 ppm worked out at 90%.

In the case of `COc1ccccc1CCOc1ncnc2ccccc12` [Example 14, 4-[2-(2-methoxyphenyl)ethoxy]quinazoline], the mortality at 400 ppm came out at 0%.

`c1ccc2c(c1)Cc1cc(CCOc3ncnc4ccccc34)ccc1-2` [Example 20, 4-[2-(9H-fluoren-2-yl)ethoxy]quinazoline]: the mortality at 400 ppm came out at 100%.

In the case of `FC(F)(F)c1ccc(CCOc2ncnc3ccccc23)cc1` [Example 134, 4-[2-[4-(trifluoromethyl)phenyl]ethoxy]quinazoline], the mortality at 400 ppm was determined as 100%.

A further experiment relates to Botrytis cinerea (gray mold). In words: Greenhouse Test 1, foliar spray fungicide screen (GRAY MOLD), host grape berries. The note with it: disease control rating, 400 ppm (+++ at 100 ppm). It counts as in vivo.
With `Fc1cccc2c(OCCc3ccc(Oc4ccccc4)cc3)ncnc12` [Example 10, 8-fluoro-4-[2-(4-phenoxyphenyl)ethoxy]quinazoline], the “GRAY MOLD” value is listed as “- (- = 0-19% control at 400 ppm)”.

Take `Clc1ccccc1CCOc1ncnc2ccccc12` [Example 11, 4-[2-(2-chlorophenyl)ethoxy]quinazoline]: the “GRAY MOLD” value is on record as “- (- = 0-19% control at 400 ppm)”.

In the case of `COc1cccc(CCOc2ncnc3ccccc23)c1` [Example 13, 4-[2-(3-methoxyphenyl)ethoxy]quinazoline], the “GRAY MOLD” value is “- (- = 0-19% control at 400 ppm)”.

As to `COc1ccccc1CCOc1ncnc2ccccc12` [Example 14, 4-[2-(2-methoxyphenyl)ethoxy]quinazoline], the “GRAY MOLD” value is given as “- (- = 0-19% control at 400 ppm)”.

The test system of another experiment is Pseudoperonospora cubensis (downy mildew). In words: Greenhouse Test 1, foliar spray fungicide screen (DOWN MDEW), host squash. It counts as in vivo. The note with it: disease control rating, 400 ppm (+++ at 100 ppm).
Take `Fc1cccc2c(OCCc3ccc(Oc4ccccc4)cc3)ncnc12` [Example 10, 8-fluoro-4-[2-(4-phenoxyphenyl)ethoxy]quinazoline]: the “DOWN MDEW” value is listed as “+++ (+++ = 90-100% control at 100 ppm)”.

`Clc1ccccc1CCOc1ncnc2ccccc12` [Example 11, 4-[2-(2-chlorophenyl)ethoxy]quinazoline]: the “DOWN MDEW” value is given as “+++ (+++ = 90-100% control at 100 ppm)”.

With `COc1cccc(CCOc2ncnc3ccccc23)c1` [Example 13, 4-[2-(3-methoxyphenyl)ethoxy]quinazoline], the “DOWN MDEW” value is listed as “+++ (+++ = 90-100% control at 100 ppm)”.

With `COc1ccccc1CCOc1ncnc2ccccc12` [Example 14, 4-[2-(2-methoxyphenyl)ethoxy]quinazoline], the “DOWN MDEW” value was “++ (++ = 90-100% control at 400 ppm)”.

For `c1ccc2c(c1)Cc1cc(CCOc3ncnc4ccccc34)ccc1-2` [Example 20, 4-[2-(9H-fluoren-2-yl)ethoxy]quinazoline], the “DOWN MDEW” value is “+ (+ = 20-89% control at 400 ppm)”.

In another experiment the test system is Erysiphe graminis tritici (powdery mildew). In words: Greenhouse Test 1, foliar spray fungicide screen (POWD MDEW), host wheat. In kind it is in vivo. The note with it: disease control rating, 400 ppm (+++ at 100 ppm).
As for `Fc1cccc2c(OCCc3ccc(Oc4ccccc4)cc3)ncnc12` [Example 10, 8-fluoro-4-[2-(4-phenoxyphenyl)ethoxy]quinazoline], the “POWD MDEW” value is on record as “+++ (+++ = 90-100% control at 100 ppm)”.

As for `Clc1ccccc1CCOc1ncnc2ccccc12` [Example 11, 4-[2-(2-chlorophenyl)ethoxy]quinazoline], the “POWD MDEW” value is listed as “++ (++ = 90-100% control at 400 ppm)”.

`COc1cccc(CCOc2ncnc3ccccc23)c1` [Example 13, 4-[2-(3-methoxyphenyl)ethoxy]quinazoline]: the “POWD MDEW” value was “+++ (+++ = 90-100% control at 100 ppm)”.

Turning to `COc1ccccc1CCOc1ncnc2ccccc12` [Example 14, 4-[2-(2-methoxyphenyl)ethoxy]quinazoline], the “POWD MDEW” value is given as “+ (+ = 20-89% control at 400 ppm)”.

In the case of `c1ccc2c(c1)Cc1cc(CCOc3ncnc4ccccc34)ccc1-2` [Example 20, 4-[2-(9H-fluoren-2-yl)ethoxy]quinazoline], the “POWD MDEW” value was “++ (++ = 90-100% control at 400 ppm)”.

`FC(F)(F)c1ccc(CCOc2ncnc3ccccc23)cc1` [Example 134, 4-[2-[4-(trifluoromethyl)phenyl]ethoxy]quinazoline]: the “POWD MDEW” value is “+++ (+++ = 90-100% control at 100 ppm)”.

In another experiment the test system is Puccinia recondita tritici (leaf rust). In words: Greenhouse Test 1, foliar spray fungicide screen (LEAF RUST), host wheat. It counts as in vivo. The following applies: disease control rating, 400 ppm (+++ at 100 ppm).
Turning to `Fc1cccc2c(OCCc3ccc(Oc4ccccc4)cc3)ncnc12` [Example 10, 8-fluoro-4-[2-(4-phenoxyphenyl)ethoxy]quinazoline], the “LEAF RUST” value was “+++ (+++ = 90-100% control at 100 ppm)”.

For `Clc1ccccc1CCOc1ncnc2ccccc12` [Example 11, 4-[2-(2-chlorophenyl)ethoxy]quinazoline], the “LEAF RUST” value is “++ (++ = 90-100% control at 400 ppm)”.

Turning to `COc1cccc(CCOc2ncnc3ccccc23)c1` [Example 13, 4-[2-(3-methoxyphenyl)ethoxy]quinazoline], the “LEAF RUST” value is recorded as “+++ (+++ = 90-100% control at 100 ppm)”.

Consider `COc1ccccc1CCOc1ncnc2ccccc12` [Example 14, 4-[2-(2-methoxyphenyl)ethoxy]quinazoline], for which the “LEAF RUST” value is given as “+ (+ = 20-89% control at 400 ppm)”.

`c1ccc2c(c1)Cc1cc(CCOc3ncnc4ccccc34)ccc1-2` [Example 20, 4-[2-(9H-fluoren-2-yl)ethoxy]quinazoline]: the “LEAF RUST” value was “+ (+ = 20-89% control at 400 ppm)”.

With `FC(F)(F)c1ccc(CCOc2ncnc3ccccc23)cc1` [Example 134, 4-[2-[4-(trifluoromethyl)phenyl]ethoxy]quinazoline], the “LEAF RUST” value is on record as “+++ (+++ = 90-100% control at 100 ppm)”.

Values taken from patent publication EP0326329B1, “Quinazoline derivatives useful as insecticides” (Dow AgroSciences LLC, priority 1988, dated 1989).
